According to publication PMC7156458, “Synthetic biology based construction of biological activity-related library of fungal decalin-containing diterpenoid pyrones” (Nature Communications, 2020):
Several values for one entry are separate records, joined by “and”; a condition that tells them apart may be missing. Equal values may be shown once. Read-outs that look alike come from different tables or passages of the source.

Tests used:
[1] = system: hepatitis B virus (HBV), measles virus (MV), Epstein-Barr virus (EBV), herpes simplex virus (HSV); experiment: preliminary anti-viral screening (other viruses); assay type: cell-based
Source text: (§1) We examined the inhibitory activities of DDPs against various species of bacteria (both gram-negative and gram-positive bacteria), fungi and viruses. […] In contrast, preliminary screening of the DDPs for anti-viral agents with hepatitis B virus (HBV), measles virus (MV), Epstein-Barr virus (EBV), herpes simplex virus (HSV) and human immunodeficiency virus-1 (HIV-1) indicated their selective inhibition of HIV.

DL1 cells = experiment: cytotoxicity in Drosophila DL1 cells; assay type: cell-based; settings: DL1 cells; for IC50: Drosophila melanogaster, cytotoxicity
Experimental: (§2) We screened the DDPs on the Drosophila assay system for cytotoxicity, inhibitory activity of innate immune signalling and insecticidal activity. The cytotoxicity of the DDPs was evaluated using two cell lines, embryonic macrophage-derived DL1 cells[58]–[60] and larval blood cell-derived l(2)mbn cells, and their IC50 values are listed in Supplementary Table 23.

[2] = cytotoxicity in Drosophila DL1 cells; assay type: cell-based; settings: Drosophila, DL1 cells (embryonic macrophage-derived), DL1 cells
Experimental: as §2

l(2)mbn cells = experiment: cytotoxicity in Drosophila l(2)mbn cells; assay type: cell-based; settings: for Luminescence Raw1: replicate 1; for Luminescence Raw2: replicate 2; for IC50: Drosophila melanogaster, cytotoxicity
Experimental: as §2

[3] = cytotoxicity in Drosophila l(2)mbn cells; assay type: cell-based; settings: Drosophila, l(2)mbn cells (larval blood cell-derived)
Experimental: as §2

MCF-7 cells = experiment: mammosphere formation assay; assay type: cell-based, human; settings: MCF-7, 5 μM, 7 days
[4] = system: human immunodeficiency virus-1 (HIV-1); experiment: anti-HIV MAGI assay; assay type: cell-based; settings: Human immunodeficiency virus 1, MAGI, anti-HIV
Source text: as §1

MAGI cells = experiment: cytotoxicity in the anti-HIV assay (CC50); assay type: cell-based; settings: single determinations
[5] = average of two replicates, read-out: IC50 Average
[6] = replicate 1, read-out: IC50 (1)
[7] = replicate 2, read-out: IC50 (2)
[8] = replicate 1, relative to DMSO 1%, read-out: % viability, viability 1
[9] = replicate 2, relative to DMSO 1%, read-out: % viability, viability 2
[10] = average of numeric determinations, read-out: Avg. EC50

C=C1CC[C@H]2[C@]3(C)C[C@H](C=C(C)C)O[C@H]3CC[C@]2(C)[C@@H]1Cc1c(OC)oc(CO)c(C)c1=O [Compound 18]
effect on other viruses [1]: without affecting other viruses
Luminescence Raw1 (DL1 cells; 0.04 µM, replicate 1): 1968545
Luminescence Raw2 (DL1 cells; 0.04 µM, replicate 2): 1896774
Luminescence Raw1 (DL1 cells; 0.2 µM, replicate 1): 1171179
Luminescence Raw2 (DL1 cells; 0.2 µM, replicate 2): 1320836
Luminescence Raw1 (DL1 cells; 1 µM, replicate 1): 154319
Luminescence Raw2 (DL1 cells; 1 µM, replicate 2): 146747
Luminescence Raw1 (DL1 cells; 4 µM, replicate 1): 102038
Luminescence Raw2 (DL1 cells; 4 µM, replicate 2): 104562
Luminescence Raw1 (DL1 cells; 10 µM, replicate 1): 106725
Luminescence Raw2 (DL1 cells; 10 µM, replicate 2): 129801
Luminescence Raw1 (DL1 cells; 20 µM, replicate 1): 80404
Luminescence Raw2 (DL1 cells; 20 µM, replicate 2): 106364
IC50 (DL1 cells; [5]): 254 nM
IC50 (DL1 cells; average±SEM, read-out: IC50): 250 ± 20 nM
IC50 (DL1 cells; [6]): 236 nM
IC50 (DL1 cells; [7]): 272 nM
viability at 0.04 µM [2, 8]: 95.6%
viability at 0.04 µM [2, 9]: 92.1%
viability at 0.2 µM [2, 8]: 56.9%
viability at 0.2 µM [2, 9]: 64.1%
viability at 1 µM [2, 8]: 7.49%
viability at 1 µM [2, 9]: 7.12%
viability at 4 µM [2, 8]: 4.95%
viability at 4 µM [2, 9]: 5.08%
viability at 10 µM [2, 8]: 5.18%
viability at 10 µM [2, 9]: 6.3%
viability at 20 µM [2, 8]: 3.9%
viability at 20 µM [2, 9]: 5.16%
Luminescence Raw1 (l(2)mbn cells; 0.04 µM): 2968023
Luminescence Raw2 (l(2)mbn cells; 0.04 µM): 2468099
Luminescence Raw1 (l(2)mbn cells; 0.2 µM): 3357960
Luminescence Raw2 (l(2)mbn cells; 0.2 µM): 2956480
Luminescence Raw1 (l(2)mbn cells; 1 µM): 2768193
Luminescence Raw2 (l(2)mbn cells; 1 µM): 3359403
Luminescence Raw1 (l(2)mbn cells; 4 µM): 1663102
Luminescence Raw2 (l(2)mbn cells; 4 µM): 2355206
Luminescence Raw1 (l(2)mbn cells; 10 µM): 190041
Luminescence Raw2 (l(2)mbn cells; 10 µM): 205906
Luminescence Raw1 (l(2)mbn cells; 20 µM): 236915
Luminescence Raw2 (l(2)mbn cells; 20 µM): 213117
IC50 (l(2)mbn cells; [5]): 6000 nM
IC50 (l(2)mbn cells; average±SEM, read-out: IC50): 6000 ± 1090 nM
IC50 (l(2)mbn cells; [6]): 4920 nM
IC50 (l(2)mbn cells; [7]): 7090 nM
viability at 0.04 µM [3, 8]: 116%
viability at 0.04 µM [3, 9]: 96.2%
viability at 0.2 µM [3, 8]: 131%
viability at 0.2 µM [3, 9]: 115%
viability at 1 µM [3, 8]: 108%
viability at 1 µM [3, 9]: 131%
viability at 4 µM [3, 8]: 64.8%
viability at 4 µM [3, 9]: 91.8%
viability at 10 µM [3, 8]: 7.4%
viability at 10 µM [3, 9]: 8.02%
viability at 20 µM [3, 8]: 9.23%
viability at 20 µM [3, 9]: 8.3%
MFE (%) ave (MCF-7 cells; mean of 3, control 0.87): 0.64%
MFE (control = 1) ave (MCF-7 cells; relative to control = 1): 0.74
MFE (%) (MCF-7 cells; single replicates): 0.66% and 0.58% and 0.68%
EC50 ([4]; MAGI assay, read-out: EC50): < 200 nM
EC50 [4, 10]: 644 nM
Cytotoxicity (MAGI cells): >10 µM

C=C1CC[C@@H]2[C@](C)(CC[C@H]3O[C@H](C=C(C)C)C[C@@]23C)[C@@H]1Cc1c(O)c(C)c(C)oc1=O [Compound 10, higginsianin A]
effect on other viruses [1]: without affecting other viruses
Luminescence Raw1 (DL1 cells; 0.04 µM, replicate 1): 1703467
Luminescence Raw2 (DL1 cells; 0.04 µM, replicate 2): 1762974
Luminescence Raw1 (DL1 cells; 0.2 µM, replicate 1): 745666
Luminescence Raw2 (DL1 cells; 0.2 µM, replicate 2): 721146
Luminescence Raw1 (DL1 cells; 1 µM, replicate 1): 148910
Luminescence Raw2 (DL1 cells; 1 µM, replicate 2): 134127
Luminescence Raw1 (DL1 cells; 4 µM, replicate 1): 98071
Luminescence Raw2 (DL1 cells; 4 µM, replicate 2): 133046
Luminescence Raw1 (DL1 cells; 10 µM, replicate 1): 156482
Luminescence Raw2 (DL1 cells; 10 µM, replicate 2): 143141
Luminescence Raw1 (DL1 cells; 20 µM, replicate 1): 118984
Luminescence Raw2 (DL1 cells; 20 µM, replicate 2): 119705
IC50 (DL1 cells; [5]): 133 nM
IC50 (DL1 cells; average±SEM, read-out: IC50): 130 ± 10 nM
IC50 (DL1 cells; [6]): 132 nM
IC50 (DL1 cells; [7]): 133 nM
viability at 0.04 µM [2, 8]: 82.7%
viability at 0.04 µM [2, 9]: 85.6%
viability at 0.2 µM [2, 8]: 36.2%
viability at 0.2 µM [2, 9]: 35%
viability at 1 µM [2, 8]: 7.23%
viability at 1 µM [2, 9]: 6.51%
viability at 4 µM [2, 8]: 4.76%
viability at 4 µM [2, 9]: 6.46%
viability at 10 µM [2, 8]: 7.6%
viability at 10 µM [2, 9]: 6.95%
viability at 20 µM [2, 8]: 5.78%
viability at 20 µM [2, 9]: 5.81%
Luminescence Raw1 (l(2)mbn cells; 0.04 µM): 2899849
Luminescence Raw2 (l(2)mbn cells; 0.04 µM): 3256235
Luminescence Raw1 (l(2)mbn cells; 0.2 µM): 2762422
Luminescence Raw2 (l(2)mbn cells; 0.2 µM): 3200684
Luminescence Raw1 (l(2)mbn cells; 1 µM): 521407
Luminescence Raw2 (l(2)mbn cells; 1 µM): 1075282
Luminescence Raw1 (l(2)mbn cells; 4 µM): 189680
Luminescence Raw2 (l(2)mbn cells; 4 µM): 232227
Luminescence Raw1 (l(2)mbn cells; 10 µM): 176340
Luminescence Raw2 (l(2)mbn cells; 10 µM): 201579
Luminescence Raw1 (l(2)mbn cells; 20 µM): 149658
Luminescence Raw2 (l(2)mbn cells; 20 µM): 165883
IC50 (l(2)mbn cells; [5]): 630 nM
IC50 (l(2)mbn cells; average±SEM, read-out: IC50): 630 ± 100 nM
IC50 (l(2)mbn cells; [6]): 529 nM
IC50 (l(2)mbn cells; [7]): 734 nM
viability at 0.04 µM [3, 8]: 113%
viability at 0.04 µM [3, 9]: 127%
viability at 0.2 µM [3, 8]: 108%
viability at 0.2 µM [3, 9]: 125%
viability at 1 µM [3, 8]: 20.3%
viability at 1 µM [3, 9]: 41.9%
viability at 4 µM [3, 8]: 7.39%
viability at 4 µM [3, 9]: 9.05%
viability at 10 µM [3, 8]: 6.87%
viability at 10 µM [3, 9]: 7.85%
viability at 20 µM [3, 8]: 5.83%
viability at 20 µM [3, 9]: 6.46%
EC50 ([4]; MAGI assay, read-out: EC50): < 200 nM
EC50 [4, 10]: 53.2 nM
Cytotoxicity (MAGI cells): >10 µM
